Columns and labels:
Sigma 2 receptor [1] = experiment: Binding affinity was evaluated against sigma-2 binding site in rat liver using [3H]DTG -(+)-Dextrallorphan as radioligand
Sigma 2 receptor [2] = experiment: The Binding affinity was evaluated against sigma-2 binding site in rat liver using [3H]- -(+)-3-PPP
Sigma 2 receptor [3] = experiment: The Binding affinity was evaluated using [3H]DTG -(+)-Dextrallorphan] in rat liver

| Structure (SMILES) | Ki (Sigma 2 receptor [1]) [nM] | Ki (Sigma 2 receptor [2]) [nM] | Ki (Sigma 2 receptor [3]) [nM] |
| --- | --- | --- | --- |
| CN(CCc1cccc(Cl)c1)CCN1CCCC1 | 28.3 |  |  |
| CN(CCc1cccc(Br)c1)CCN1CCCC1 | 59.8 |  |  |
| CN(CCc1cccc(I)c1)CCN1CCCC1 | 9.1 |  |  |
| CN(CCc1ccc(I)cc1)CCN1CCCC1 | 43.1 |  |  |
| CN(CCc1cccc(F)c1)CCN1CCCC1 | 104 |  |  |
| CN(CCN1CCCC1)Cc1cccc(Br)c1 | 220 |  |  |
| CN(CCc1ccc(F)cc1)CCN1CCCC1 | 124 |  |  |
| CN(CCN1CCCC1)Cc1ccc(I)cc1 | 24.5 |  |  |
| CN(CCc1ccc(Cl)c(Cl)c1)CCN1CCCC1 | 8.1 | 0.34 |  |
| CN(CCc1ccc(Br)cc1)CCN1CCCC1 | 32.5 |  |  |
| CN(CCN1CCCC1)Cc1ccccc1I | 48.2 |  |  |
| CN(CCN1CCCC1)Cc1cccc(I)c1 | 33.7 |  |  |
| CN(CCc1ccc(Cl)cc1)CCN1CCCC1 | 50.5 |  |  |
| Cc1ccc(NC(=N)Nc2ccc(C)cc2)cc1 |  |  | 1540 |

Reference: ChEMBL document CHEMBL1126607, “Synthesis and binding characteristics of potential SPECT imaging agents for sigma-1 and sigma-2 binding sites” (J Med Chem, 1993)
